Measured values published in patent publication US20190060325A1, “STABILIZED SOLID DOSAGE FORM” (SHIONOGI & CO., LTD., priority 2016, published 2019).

Assay: Effect of excipients on suppression of related substance formation (compound (IV) alone or mixed with excipient, stored at 60° C. for two weeks, HPLC)
Format: physicochemical
Settings: compound (IV) only; for Relative amount (%) of related substance C after storage of 60° C./2 W: 60° C. two weeks
Description: Effect of excipients on suppression of related substance formation was examined. The excipients were physically (dry) mixed or were wet-kneaded using purified water with the compound (IV) in designated ratios in Table 1. The wet-kneaded materials were dried at 60° C. with ventilation. The dried materials were subdivided in glass bottles and the bottles were capped. The capped samples were stored at 60° C. for two weeks and the effect on suppression of related substance formation was estimated by the increased amount of related substances.
The relative amounts of the related substances in a 25 mg tablet obtained in the following Examples were determined by HPLC under the following conditions.
Detector: Ultraviolet spectrophotometer (wavelength: 245 nm)
Column: Unison UK-C18, 3 μm, 4.6×100 mm (Imtakt)
Column temperature: 40° C. Solution A: 0.1% trifluoroacetic acid solution
Flow rate: About 1.0 mL/min
• Compound (IV): 9 to 10 min; • Related substance A: 20 to 21 min; • Related substance B: 21 to 22 min; • Related substance C: 22 to 23 min; • Related substance D: 28 to 29 min; • Related substance E: 36 to 37 min. Injection volume: 10 μL Analytical time: 45 min
Related substances of compound (IV) were calculated by the following equation.
As: Peak area of compound (IV) in a standard solution Ai: Peak area of individual related substance ΣAi: Sum of peak area of individual related substance

Relative amount (%) of related substance C after storage of 60° C./2 W (milled, capped glass bottle, % peak area of HPLC): 0.19%
Relative amount (%) of related substance C, Initial (milled, before storage): (Initial: 0.05%)
Relative amount (%) of related substance C after storage of 60° C./2 W (wet-kneaded): 0.16%
SMILES: C[C@@]1(c2cc(NC(=O)c3ccc(C#N)cn3)ccc2F)C=CSC(N)=N1 [compound (IV)]
